Laboratory results: US11965180B2, “Cancer stem cell population and method for production thereof” (CHUGAI SEIYAKU KABUSHIKI KAISHA, priority 2010, dated 2024)

Tests used:
Assay type in all cases: cell-based, human
[1] = tested on: Lgr5-positive colon cancer stem cells; experiment: Cell growth, Cell Counting Kit-8, adherent cancer stem cells; details: 3-day culture; for growth of Lgr5-positive colon cancer stem cells: PLR123 and PLR59 cells
Description: (§1) To determine whether or not the Wnt signaling promotes the growth of colon cancer stem cells, the inventors examined the effects of FH535 (β-catenin/TCF inhibitor) and cardamonin (Wnt/β-catenin inhibitor that induces β-catenin degradation) on the growth of colon cancer stem cells. Cell growth was evaluated as described below. Floating and adherent cancer stem cells were seeded at about 100 and 1×10^4 cells per well, respectively, in 96-well plates. On days 0 and 3, living cells were counted using the Cell Counting Kit-8 assay (Doujindo) according to the manufacturer's protocol. The average absorbance on day 0 was expressed as 100%. For chemical sensitivity analysis, floating and adherent cancer stem cells were seeded at about 100 and 1×10^4 cells per well in 96-well plates, respectively. […] After 3-day culture in the presence of a drug, Cell Counting Kit-8 was added to the cells. The average absorbance of cells exposed to DMSO or the medium alone was expressed as 100%. All the experiments were conducted in triplicate.

[2] = tested on: Lgr5-negative colon cancer stem cells; experiment: Cell growth, Cell Counting Kit-8, floating cancer stem cells; details: 3-day culture; for growth and survival of Lgr5-negative colon cancer stem cells: 10 μg/ml
Description: as §1

[3] = tested on: Lgr5-positive colon cancer stem cells; experiment: Lgr5 expression in adherent cancer stem cells after chemotherapeutic agent treatment (flow cytometry); details: after 3 days of exposing Lgr5-positive colon cancer stem cells to 10 μg/ml
Description: Gray indicates fluorescence intensity or ALDH activity after staining cells with the antibodies described. White indicates fluorescence intensity or ALDH activity of an ALDH inhibitor after staining cells with a control isotype antibody.
CSC was incubated with a labeled antibody and analyzed using EPICS ALTRA (Beckman Coulter) and FACSCalibur (Becton Dickinson). The antibodies used were PE-labeled mouse anti-human CD133 (Miltenyi Biotec), PE-labeled mouse anti-human CD44 (BD Pharmingen), FITC-labeled mouse anti-human CD326 (EpCAM) (Miltenyi Biotec), PE-labeled mouse anti-human CD166 (R & D Systems), PE-labeled mouse anti-human CD24 (BD Pharmingen), PE-labeled mouse anti-human CD26 (BD Pharmingen), and PE-labeled mouse anti-human CD29 (BD Pharmingen) antibodies.
Subsequently, the CSC was incubated with a mouse anti-human Lgr5 antibody (2T15E-2) and then a PR-labeled rat anti-mouse IgG (Invitrogen) antibody for Lgr5 staining. Aldehyde dehydrogenase activity was measured using the AldeFluor Kit (Stemcell Technologies). Mouse cells and human CSC were distinguished by staining with an anti-mouse MHC class I antibody (Abcam) and a PE- or APC-labeled goat anti-human IgG2a (BioLegend) antibody. Dead cells were removed with the 7-AAD Viability Dye (Beckman Coulter).

With `Cc1cc([N+](=O)[O-])ccc1NS(=O)(=O)c1cc(Cl)ccc1Cl` [FH535] the “growth of Lgr5-positive colon cancer stem cells” value ([1]; 50 μM) was “significantly reduced the growth” and the “growth of Lgr5-negative colon cancer stem cells” value ([2]; 50 μM, PLR123 and PLR59 cells) was “had no effect on the growth”.

With `O=c1[nH]cc(F)c(=O)[nH]1` [5-FU] the “growth of Lgr5-positive colon cancer stem cells” value ([1]; 10 μg/ml) was “significantly inhibited the growth”, the “growth and survival of Lgr5-negative colon cancer stem cells” value ([2]; PLR123 and PLR59 cells) was “had no effect on the growth and survival” and the “Lgr5 status of drug-resistant cells” value [3] was “negative for Lgr5”.

In the case of `CCc1c2c(nc3ccc(OC(=O)N4CCC(N5CCCCC5)CC4)cc13)-c1cc3c(c(=O)n1C2)COC(=O)[C@]3(O)CC` [irinotecan], the “growth of Lgr5-positive colon cancer stem cells” value ([1]; 10 μg/ml) is reported as “significantly inhibited the growth” and the “growth and survival of Lgr5-negative colon cancer stem cells” value ([2]; PLR123 and PLR59 cells) is reported as “had no effect on the growth and survival”.

For `COc1cc(O)cc(O)c1C(=O)/C=C/c1ccccc1` [cardamonin], the “number of living cells” value ([1]; 50 μM, relative to DMSO alone, Lgr5-positive colon cancer stem cells) was 70% and the “number of living cells” value ([2]; 50 μM, relative to DMSO alone, Lgr5-negative colon cancer stem cells) was “about 50%”.
